ChEMBL document CHEMBL3120110, “Design, synthesis, biological evaluation, and comparative docking study of 1,2,4-triazolones as CB1 receptor selective antagonists” (Eur J Med Chem, 2014)

Key:
Cannabinoid receptor 2 [1] = target: T1, Cannabinoid receptor 2 (Homo sapiens, UniProt P34972); test: Antagonist activity at CB2 receptor (unknown origin) stably expressed in CHO cells co-expressing co-expressing Ga15/16 assessed as calcium current at 10 uM after 45 mins by fluo-4 AM assay relative to basal control; type: functional, cell-based
Cannabinoid receptor 1 [2] = target: T2, Cannabinoid receptor 1 (Homo sapiens, UniProt P21554); type: functional, cell-based, CHO
Cannabinoid receptor 1 [3] = target: T2, Cannabinoid receptor 1; details: CHO, at 10 µM
Cannabinoid receptor 2 [4] = target: T1, Cannabinoid receptor 2; test: Antagonist activity at CB2 receptor (unknown origin) stably expressed in CHO cells co-expressing co-expressing Ga15/16 assessed as calcium current after 45 mins by fluo-4 AM assay; type: functional, cell-based

T1 sequence (P34972 whole entry): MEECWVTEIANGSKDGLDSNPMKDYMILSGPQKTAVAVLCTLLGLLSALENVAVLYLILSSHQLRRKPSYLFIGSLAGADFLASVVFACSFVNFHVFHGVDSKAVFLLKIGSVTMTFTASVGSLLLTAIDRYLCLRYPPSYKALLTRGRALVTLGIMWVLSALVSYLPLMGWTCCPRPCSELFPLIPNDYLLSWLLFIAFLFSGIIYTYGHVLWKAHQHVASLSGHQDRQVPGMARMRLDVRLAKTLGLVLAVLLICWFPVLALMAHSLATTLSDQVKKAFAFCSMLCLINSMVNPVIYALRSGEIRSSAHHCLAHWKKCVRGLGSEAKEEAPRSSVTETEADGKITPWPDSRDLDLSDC
T2 sequence (P21554 whole entry): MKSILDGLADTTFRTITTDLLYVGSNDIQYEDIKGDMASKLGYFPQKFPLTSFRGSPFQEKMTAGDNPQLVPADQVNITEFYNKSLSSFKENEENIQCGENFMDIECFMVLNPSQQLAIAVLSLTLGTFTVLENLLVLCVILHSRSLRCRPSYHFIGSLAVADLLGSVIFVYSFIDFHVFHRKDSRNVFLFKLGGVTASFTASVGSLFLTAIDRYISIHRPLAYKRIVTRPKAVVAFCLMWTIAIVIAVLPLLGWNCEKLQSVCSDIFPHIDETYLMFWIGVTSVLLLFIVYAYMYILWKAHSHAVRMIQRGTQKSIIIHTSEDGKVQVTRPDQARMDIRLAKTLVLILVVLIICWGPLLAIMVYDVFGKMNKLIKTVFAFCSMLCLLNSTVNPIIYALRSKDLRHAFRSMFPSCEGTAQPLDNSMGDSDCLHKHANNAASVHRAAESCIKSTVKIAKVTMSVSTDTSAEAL

| Structure (SMILES) | inhibition (Cannabinoid receptor 2 [1]) | IC50 (Cannabinoid receptor 1 [2]) | inhibition (Cannabinoid receptor 1 [3]) | IC50 (Cannabinoid receptor 2 [4]) |
| --- | --- | --- | --- | --- |
| Cc1ccc(Cn2c(-c3ccc(C)cc3)nn(C(=O)Nc3ccc(Cl)cc3)c2=O)cc1 | 29.9% | 3750 nM | 89% |  |
| CCCCCOc1c(OC)ccc2cc(C(=O)NCc3ccc4c(c3)OCO4)c(=O)[nH]c12 | 130% |  | 37.6% |  |
| Cc1ccc(Cn2c(-c3ccc(Cl)cc3)nn(C(=O)Nc3ccc(C)cc3)c2=O)cc1 |  |  | 36.8% |  |
| Cc1ccc(-n2c(-c3ccc(Cl)cc3)nn(C(=O)NC3CCCCC3)c2=O)cc1 | 46.4% | 222 nM | 102% |  |
| Cc1ccc(Cn2c(-c3ccc(Cl)cc3)nn(C(=O)NC3CCCCC3)c2=O)cc1 | 87.7% |  | 42.6% | 1930 nM |
| COc1ccc(-c2nn(C(=O)Nc3ccc(Cl)cc3)c(=O)n2-c2ccc(C)cc2)cc1 | 43.6% | 4730 nM | 90.5% |  |
| COc1ccc(-n2c(-c3ccc(Cl)cc3)nn(C(=O)Nc3ccc(C)cc3)c2=O)cc1 | 85.6% | 8440 nM | 74.6% | 20000 nM |
| COc1ccc(-c2nn(C(=O)Nc3ccc(C)cc3)c(=O)n2-c2ccc(Cl)cc2)cc1 | 74% | 2280 nM | 96.6% |  |
| COc1ccc(-c2nn(C(=O)NC3CCCCC3)c(=O)n2-c2ccc(Cl)cc2)cc1 | 124% | 878 nM | 96.5% | 6080 nM |
| COc1ccc(-n2c(-c3ccc(Cl)cc3)nn(C(=O)NC3CCCCC3)c2=O)cc1 | 94% | 388 nM | 98.6% | 1510 nM |
| Cc1ccc(-c2nn(C(=O)NC3CCCCC3)c(=O)n2-c2ccc(Cl)cc2)cc1 | 58.5% | 2100 nM | 98.2% |  |
| COc1ccc(-c2nn(C(=O)NC3CCCCC3)c(=O)n2-c2ccc(C)cc2)cc1 | 131% | 1840 nM | 98% | 4090 nM |
| Cc1ccc(NC(=O)n2nc(-c3ccc(C)cc3)n(-c3ccc(Cl)cc3)c2=O)cc1 |  | 947 nM | 91.9% |  |
| Cc1ccc(Cn2c(-c3ccc(C)cc3)nn(C(=O)NC3CCCCC3)c2=O)cc1 | 132% | 17800 nM | 60.9% | 5030 nM |
